In patent US20130184272A1, “DIABETES THERAPEUTIC AGENT” (TAKEDA PHARMACEUTICAL COMPANY LIMITED, priority 2010, published 2013):
“And” between values parts separate entries of the source, which are not always exact repeats. Identical values can stand only once.

Experiments:
[1] = system: Male FisherF344 rats fed with a high-fat diet; test: Antiobesity action and dyslipidemia improving effect in high-fat diet-loaded rat; type: in vivo
Experimental: Male FisherF344 rats (CLEA Japan, Inc.) fed with a high-fat diet (45 kcal % fat, D12451, research diet) for 38 weeks from 5 weeks of age were used. They were bred with a powder high-fat diet (D12451M) for 4 weeks for acclimation, measured for body weight, body composition, amount of ingestion and plasma component, and divided into 3 groups (6 per group) without difference between them. The plasma components (total cholesterol, triglyceride, glucose concentration) were measured by HITACHI automatic analyzer 7070. As the body composition, total fat mass, body fat percentage, lean body mass of lower leg, and visceral fat mass were measured by X-ray CT apparatus (LCT-100A, LaTheta). The compound of Reference Example 1 was suspended in aqueous methylcellulose solution and orally administered repeatedly to 2 groups of the rats divided into 3 groups at 0.03 mg/kg or 0.1 mg/kg once a day for 14 days. A 0.5% aqueous methylcellulose solution was orally administered similarly to the remaining one group and used as a control group. On the administration completion day, the blood was drawn again from the tail vein, and plasma levels of total cholesterol, triglyceride, glucose, insulin and leptin, and body weight and body composition (total fat mass, body fat percentage, lean body mass of lower leg, visceral fat mass) were measured. The amount of ingestion was calculated from the amount of the feed given and the amount left, and the total of the test period was calculated. The numerical values in Table 11 and Table 12 show mean±standard deviation at n=5-6 (n is the number of rats).

creatine kinase (CKM) = test: Muscle-related gene expression in myoblast: creatine kinase (CKM); type: cell-based, Mouse; details: for CKM/36B4 expression level: 10 μM, 1 day, relative value
C2C12 cells = test: Action on muscle cell differentiation suppressed by TNF-α (creatine kinase activity); type: cell-based, Mouse; details: for creatine kinase activity (mIU/μg): TNF-a 30 ng/mL, 3 days
Experimental: • (1) In the same manner as in Example 1, C2C12 cells were cultured in a growth medium to not less than 90% confluence. • (2) The medium was exchanged with a differentiation medium, the compound of Reference Example 1 together with TNF-α were added, and the cells were cultured for 3 days. • (3) The cells were washed with PBS, 0.5% NP-40 solution was added, and the cells were lysed by freeze-thawing. The cell extract was centrifuged and the creatine kinase activity in the supernatant was measured as an index of muscle differentiation. The creatine kinase activity was measured using CPKII Test Wako (Wako Pure Chemical Industries, Ltd.) according to the manual of the kit.
The data in Table 9 show mean±standard deviation at n=3 (n is the number of samples).

[2] = system: phosphorylated acetyl-CoA carboxylase (ACC); test: Phosphorylated acetyl-CoA carboxylase (ACC) amount in muscle cell; type: cell-based, Mouse; details: for Phospho-ACC amount (%): 3 days, amended with total ACC, no compound = 100%
Experimental: • (1) In the same manner as in Example 1, C2C12 cells were cultured in a growth medium. After reaching subconfluence of not less than 90%, the medium was exchanged with a differentiation medium and the cells were cultured for about 4 days while exchanging the medium every 2 or 3 days until the cells differentiated to form a myotube. • (2) After confirmation of myotube formation under a microscope, the test compound (0.1-10 nM) was added to a differentiation medium and cultured for 3 days. Thereafter, the cells were fixed with 4% formaldehyde phosphate buffer for 10 min, and washed 4 times with PBS containing 0.1% TritonX-100. • (3) Odyssey Blocking Buffer (LI-COR Biosciences) was added, and the mixture was incubated at room temperature for 1 hr. Thereafter, primary antibody (ACCα (T-18) (Santacruz) and Phospho-ACC (Ser79) (Upstate)) were added, and the mixture was incubated at 4° C. overnight. • (4) The cells were washed 4 times with PBS containing 0.1% Tween20, secondary antibody (Donkey anti-goat IRDye 800CW (LI-COR Biosciences) and Donkey anti-mouse IRDye 680 (LI-COR Biosciences)) were added and the mixture was incubated under shading at room temperature for 1 hr. • (5) The cells were washed 4 times with PBS containing 0.1% Tween20, PBS was added, and the phospho-ACC amount and total ACC amount were measured using Odyssey2.1 (LI-COR Biosciences).
The numerical values in Table 20 were obtained by amending the phospho-ACC amount with total ACC amount and are shown based on the absence of addition of the compound as 100%. n is the number of samples.

[3] = 0.03 mg/kg oral once a day, 14 days
[4] = 0.1 mg/kg oral once a day, 14 days

Cc1ncccc1Oc1sc(C(N)=O)c2c1-c1c(cnn1C)CC2 [Ref. Ex. 1, 1-methyl-8-[(2-methylpyridin-3-yl)oxy]-4,5-dihydro-1H-thieno[3,4-g]indazole-6-carboxamide]
amount of ingestion (g/2 weeks) [1, 3]: 165.8 ± 13.9 g/2 weeks | body fat percentage, change rate (%) [1, 3]: 3.5 ± 1.5 % | body weight [1, 3]: 460.8 ± 15.3 g | body weight, amount of change [1, 3]: -3.8 ± 7.5 g | lean body mass (g) of lower leg [1, 3]: 82.9 ± 5.2 g | lean body mass of lower leg, amount of change [1, 3]: 8.4 ± 1.7 g | plasma glucose [1, 3]: 142.3 ± 5.6 mg/dL | plasma insulin [1, 3]: 5.2 ± 1.0 ng/mL | plasma leptin [1, 3]: 1.2 ± 0.4 ng/dL | plasma total cholesterol [1, 3]: 102.3 ± 12.6 mg/dL | plasma triglyceride [1, 3]: 242.4 ± 92.5 mg/dL | total fat mass [1, 3]: 138.0 ± 16.6 g | total fat mass, amount of change [1, 3]: -17.5 ± 8.8 g | visceral fat mass [1, 3]: 53.8 ± 6.1 g | visceral fat mass, amount of change [1, 3]: -4.3 ± 3.4 g | amount of ingestion (g/2 weeks) [1, 4]: 127.9 ± 21.2 g/2 weeks | body fat percentage (%) [1, 4]: 26.9 ± 2.6 % | body fat percentage, change rate (%) [1, 4]: −7.1 ± 1.1 % | body weight [1, 4]: 446.5 ± 38.1 g | body weight, amount of change [1, 4]: -19.5 ± 11.0 g | lean body mass (g) of lower leg [1, 4]: 84.5 ± 6.9 g | lean body mass of lower leg, amount of change [1, 4]: 9.8 ± 4.2 g | plasma glucose [1, 4]: 146.3 ± 5.9 mg/dL | plasma insulin [1, 4]: 2.8 ± 1.1 ng/mL | plasma leptin [1, 4]: 0.6 ± 0.4 ng/dL | plasma total cholesterol [1, 4]: 77.3 ± 9.6 mg/dL | plasma triglyceride [1, 4]: 100.1 ± 43.1 mg/dL | total fat mass [1, 4]: 120.5 ± 18.2 g | total fat mass, amount of change [1, 4]: -38.1 ± 6.7 g | visceral fat mass [1, 4]: 47.2 ± 9.0 g | visceral fat mass, amount of change [1, 4]: -11.0 ± 2.9 g | body weight (in words) ([1]; administration at 0.1 mg/kg): clear body weight decreasing action | expression of creatine kinase (in words) (creatine kinase (CKM); C2C12 cells cultured in a differentiation medium): promoted | CKM/36B4 expression level (creatine kinase (CKM); DM (differentiation medium)): 4.84 ± 1.08 | CKM/36B4 expression level (creatine kinase (CKM); GM (growth medium)): 0.03 ± 0.01 | creatine kinase activity decreased by TNF-α (in words) (C2C12 cells): recovered | creatine kinase activity (mIU/μg) (C2C12 cells; compound 0 nM as printed): 0.12 mIU/μg and 0.15 mIU/μg | creatine kinase activity (mIU/μg) (C2C12 cells; compound 1 nM): 0.25 mIU/μg | creatine kinase activity (mIU/μg) (C2C12 cells; compound 3 nM): 0.39 mIU/μg | Phospho-ACC amount (%) ([2]; compound 0.1 nM): 112% | Phospho-ACC amount (%) ([2]; compound 0.3 nM): 125% | Phospho-ACC amount (%) ([2]; compound 1 nM): 136% | Phospho-ACC amount (%) ([2]; compound 3 nM): 167% | Phospho-ACC amount (%) ([2]; compound 10 nM): 163% | phospho-ACC amount (in words) ([2]; differentiated C2C12 muscle cell): increased
